Results taken from patent US8192962B2, “Processes for detecting toxic substances” (Daikin Industries, Ltd., priority 2001, dated 2012).

System: Genes belonging to other category
Test: DNA chip mRNA expression in yeast, genes belonging to other category (Table 9)
Format: cell-based, Saccharomyces cerevisiae S288C
Experimental: Yeast (Saccharomyces cerevisiae S288C (α SUC2mal mel gap2 CUP1)) were incubated at 25° C. on YPD medium (yeast extract 1%, polypepton 2%, glucose 2%). One of toxic chemical substances was added to the cells at logarithmic growth phase, and the cells were further incubated for two hours. Cells were cultured without any chemical substance in the same condition, and were used as control. Concentrations of the chemical substances were defined to inhibit the growth of the yeast but not lead to death.
After completion of the incubation, the culture was centrifuged to collect the cells. To the cells, sodium acetate buffer (50 mM sodium acetate, 10 mM EDTA, 1% SDS) was added, and the mixture was shaken at 65° C. for five minutes, followed by returning to room temperature, and obtaining the supernatant, of which the procedures were repeated two times. To the supernatant, ½ amount of a solution of phenol/chloroform was added, and the mixture was centrifuged to give a supernatant, which was added with an equal amount of chloroform, and the mixture was centrifuged to give a supernatant. To the supernatant, an equal amount of isopropanol containing 0.3 M sodium acetate was added, and the mixture was allowed to stand at room temperature for 30 minutes, after which the mixture was centrifuged to give a sediment of the whole RNAs. Seventy % ethanol was added to the sediment, and the mixture was again centrifuged to give a sediment, which was then dried and dissolved in water. mRNA was isolated from the whole RNAs as followings. In view of the fact that a poly A chain is attached to the 3′ terminus of mRNA, a polynucleotide having a poly T structure which was immobilized on the surface of latex beads was used to trap the mRNA, and then the mRNA was washed and eluted with spine column (Oligotex-dT30<Super>mRNA Purification Kit, Takara). Reverse transcription of the mRNA was conducted with a reverse transcriptase (Super Script II Reverse Transcriptase; catalogue No. 18064-014, GibcoBRL) using fluorescence-labeled nucleotides to give cDNAs that were introduced with Cy3-dUTP or Cy5-dUTP during the reverse transcription.
The labeled cDNAs were dissolved in TE buffer (10mM Tris-HCl/1 mM EDTA, pH8.0), and the solution was dropped on the DNA chip containing the whole genes of yeast (DNA Chip Research Inc. Japan) so that the cDNAs were hybridized on the DNA chip at 65° C. for over 12 hours. The fluoresces intensity of the DNA chip was read with a scanner, and the ratio relative to the fluorescence intensity resulting from the absence of chemical substance was estimated as the following, which is shown in Tables 1 to 9: […]

Measured: The level of expressed mRNA in the presence of chemical substance/The level of expressed mRNA in the absence of chemical substance

O=[N+]([O-])c1cc[n+]([O-])c2ccccc12 [(5), 4-nitroquinolin-N-oxide]
0.7: yeast gene YBL078C | yeast gene YDR388W | yeast gene YDR510W | yeast gene YEL042W | yeast gene YFL022C | yeast gene YGR189C | yeast gene YKL039W | yeast gene YMR104C | yeast gene YMR275C | yeast gene YOL013C | yeast gene YOR157C | yeast gene YOR181W
1.6: yeast gene YBL041W | yeast gene YDR432W | yeast gene YLR136C | yeast gene YMR219W | yeast gene YOL164W
0.6: yeast gene YIL123W | yeast gene YJL210W | yeast gene YKL096W | yeast gene YMR297W
0.8: yeast gene YEL066W | yeast gene YIL140W | yeast gene YOR198C | yeast gene YPL149W
0.5: yeast gene YCL020W
1.9: yeast gene YCR039C | yeast gene YER094C | yeast gene YKL013C
1.3: yeast gene YBL005W-A | yeast gene YDR104C | yeast gene YER107C | yeast gene YGL094C | yeast gene YGL207W | yeast gene YGR257C | yeast gene YHR139C | yeast gene YHR142W | yeast gene YJL116C | yeast gene YJR086W | yeast gene YKL041W | yeast gene YLR327C | yeast gene YMR276W | yeast gene YPR108W
2.0: yeast gene YGR253C | yeast gene YOR259C
1.7: yeast gene YDR055W | yeast gene YER130C | yeast gene YFL028C | yeast gene YPR103W
0.9: yeast gene YDL238C | yeast gene YDR085C | yeast gene YDR315C | yeast gene YKL008C | yeast gene YKL165C | yeast gene YMR094W | yeast gene YMR226C | yeast gene YNL006W | yeast gene YOR383C
1.0: yeast gene YAR010C | yeast gene YAR062W | yeast gene YBL101C | yeast gene YBR212W | yeast gene YBR290W | yeast gene YDR259C | yeast gene YDR378C | yeast gene YDR481C | yeast gene YFR004W | yeast gene YGL158W | yeast gene YGL229C | yeast gene YGR023W | yeast gene YHR132C | yeast gene YKL007W | yeast gene YKR076W | yeast gene YLR178C | yeast gene YMR004W | yeast gene YOL109W | yeast gene YOR327C | yeast gene YOR355W
1.2: yeast gene YCL027W | yeast gene YCR004C | yeast gene YCR071C | yeast gene YDR084C | yeast gene YDR403W | yeast gene YER009W | yeast gene YFL043C | yeast gene YGR136W | yeast gene YGR213C | yeast gene YIL010W | yeast gene YJL073W | yeast gene YJR117W | yeast gene YLR391W | yeast gene YNL007C | yeast gene YNL093W | yeast gene YOR117W | yeast gene YOR185C | yeast gene YPL109C | yeast gene YPL154C
1.8: yeast gene YDL008W | yeast gene YDL018C | yeast gene YDL137W | yeast gene YDR373W | yeast gene YGL011C | yeast gene YGR120C | yeast gene YGR274C | yeast gene YIL076W | yeast gene YKL117W | yeast gene YNR010W
1.4: yeast gene YAL055W | yeast gene YAR009C | yeast gene YBR009C | yeast gene YBR283C | yeast gene YCR062W | yeast gene YDL192W | yeast gene YDR115W | yeast gene YDR358W | yeast gene YER021W | yeast gene YFL026W | yeast gene YHR185C | yeast gene YJL035C | yeast gene YLR250W | yeast gene YLR429W | yeast gene YNR069C | yeast gene YPL010W | yeast gene YPL089C | yeast gene YPR080W
2.1: yeast gene YCR096C
1.1: yeast gene YBL043W | yeast gene YBR214W | yeast gene YCR088W | yeast gene YHR027C | yeast gene YHR169W | yeast gene YJL053W | yeast gene YJL089W | yeast gene YJL164C | yeast gene YJR004C | yeast gene YKL193C | yeast gene YLR120C | yeast gene YLR356W | yeast gene YOR036W | yeast gene YOR124C | yeast gene YOR132W | yeast gene YOR288C
1.5: yeast gene YER025W | yeast gene YER039C | yeast gene YHR004C | yeast gene YHR071W | yeast gene YHR195W | yeast gene YLR362W | yeast gene YMR238W | yeast gene YNL333W | yeast gene YOR261C
